Patent publication US7166599B2, “Trisubstituted pyrimidines” (Boehringer Ingelheim Pharma GmbH & Co. KG, priority 2001, dated 2007)

Columns and labels:
γ-secretase = γ-secretase HTS luciferase reporter assay (inhibition of Aβ formation) in H4 neuroglioma cells stably carrying pFRLuc and Aβ-KKK/Gal4; assay type: cell-based; settings: luciferase activity (Steady-Glo) in doubly stable H4 neuroglioma HTS cell line, test substance incubated overnight (8–16 h), compared with control
Excerpt: The inhibition of Aβ formation was investigated using the following test system:
Preparation of a suitable γ-secretase HTS cell line:
H4 neuroglioma cells (Accession number HTB 148 at the “American Type Culture Collection”, Manassas, Va., USA) were transfected under standard conditions with the reporter construct pFRLuc (Stratagene) which carries the gene for luciferase. By transient transfection experiments with pcDNA3-Gal4 which codes for the soluble Gal4, an individual clone having the highest luciferase activity was selected. In order to prepare the Aβ-KKK/Gal4 construct, a sequence containing the N-terminal signal sequence of APP and the first 55 amino acids of Aβ (Shoji et al, 1992) was linked to the Gal4 coding sequence (Laughan, A and Gesteland, R Molec. Cell Biol., 1984, 4: 260–267) by genetic engineering and cloned into the expression vector pcDNA3neo (Invitrogen). This construct was called pcDNA3-AβKKK/Gal4. In order to insert an ER-retention signal in the substrate of the γ-secretase, the last nucleotides of the Gal4 were altered by genetic engineering so that they coded for the amino acids KKLI. This construct was named Aβ-KKK-ER. The cell clone obtained as described above was used for the second stable transfection with pcDNA3-Aβ-KKK/Gal4 or pcDNA3-Aβ-KKK-ER and the selection with neomycin was carried out under standard conditions (Sambrook and Maniatis, 1989). Individual neomycin-resistant cell clones were investigated for their expression of luciferase. The clones with the highest expression were used for the substance analyses. All the transfections were carried out using the Fugene transfection system supplied by Boehringer Mannheim, in accordance with the manufacturer's instructions.
The doubly stabile HTS cell line is seeded onto a 96/384 microtitre plate. When the cells are confluent, they are incubated with the particular test substance for a specified length of time. After incubation the cell medium is removed and the luciferase enzyme activity is determined precisely as instructed by the manufacturer of the test kit used (SteadyGlo, Promega).
As a result of the presence of an endogenous γ-secretase activity in the H4 cells the substrate (Aβ-KKK/Gal4) is cleaved proteolytically, while the transactivator Gal4 is able to become detached from the membrane and enter the cell nucleus. In the cell nucleus Gal4 binds to the Gal4-DNA binding domain of the reporter construct and thus activates the expression of the luciferase. If a specific γ-secretase inhibitor is present the substrate cannot be cleaved and Gal4 remains bound to the substrate on the cell membrane, leading to a reduction amounting to total inhibition of the luciferase activity.
Cells are seeded on 96/384 well plates in DMEM complete medium (10% FCS, 1% glutamine, 1% penicillin/streptomycin) in a dilution of 1:5. The cells are incubated for 24 to 48 h (depending on the cell clone and the dilution used) at 37° C., 5% CO2 and allowed to grow until 80–90% confluence is achieved. Then the test substance is added and the preparation is incubated overnight (8–16 h) at 37° C. and 5% CO2. The 96/384 well plates are equilibrated to ambient temperature (RT). The “Steady-Glo” Luciferase Assay System Kit (Promega catalogue no. E2520) is used. The Luciferase Assay Reagent is thawed and equilibrated to ambient temperature or freshly prepared (Luciferase Assay Substrate dissolved in Luciferase Assay Buffer). The medium is suction filtered […]. 100 μl (based on 96 well plates) of fresh complete medium are added per well. 100 μl (based on 96 well plates) of Luciferase Assay Reagent are added and the preparation is incubated for 5 min at RT. Then the luminescence is measured. For 384 well plates the quantities pipetted are reduced accordingly.
The measurements are compared with the control and then the IC50 is determined from a number of measurements.

## CNc1nc(Nc2cccc(OCCN)c2)ncc1[N+](=O)[O-].Cl.Cl
other
  melting point: 270 °C

## CNc1nc(Nc2ccc(Cl)cc2)ncc1[N+](=O)[O-] [1 (1), 2-(4-chlorophenylamino)-4-methylamino-5-nitro-pyrimidine]
γ-secretase
  IC50: 800 nM

## CNc1nc(Nc2ccc(Cl)c(Cl)c2)ncc1N [2 (1), 2-(3,4-dichlorophenylamino)-4-methylamino-5-amino-pyrimidine]
γ-secretase
  IC50: 1000 nM

## CNc1nc(Nc2ccc(Cl)c(Cl)c2)ncc1NS(C)(=O)=O [3 (3), 2-(3,4-dichlorophenylamino)-4-methylamino-5-methylsulphonylamino-pyrimidine]
γ-secretase
  IC50: 60 nM

## CNc1nc(Nc2ccc(Cl)c(Cl)c2)ncc1NC(C)=O [3 (4), 2-(3,4-dichlorophenylamino)-4-methylamino-5-acetylamino-pyrimidine]
γ-secretase
  IC50: 60 nM

## CNc1nc(Nc2ccc(Cl)c(Cl)c2)ncc1N1CCNC1=O [3 (26), 2-(3,4-dichlorophenylamino)-4-methylamino-5-(imidazolidin-2-on-1-yl)-pyrimidine]
γ-secretase
  IC50: 600 nM

## CNc1nc(Nc2ccc(Cl)c(Cl)c2)ncc1NC(=O)N1CCOCC1 [3 (30), 2-(3,4-dichlorophenylamino)-4-methylamino-5-morpholinocarbonylamino-pyrimidine]
γ-secretase
  IC50: 200 nM

## CNc1nc(Nc2ccc(Cl)c(Cl)c2)ncc1N1CCCNC1=O [3 (33), 2-(3,4-dichlorophenylamino)-4-methylamino-5-(tetrahydro-2(1H)-pyrimidinon-1-yl)-pyrimidine]
γ-secretase
  IC50: 300 nM

## CNc1nc(Nc2ccc(Cl)cc2F)ncc1NC(=O)N(C)C [3 (36), 2-(4-chloro-2-fluorophenylamino)-4-methylamino-5-(N,N-dimethylcarbamoyl-amino)-pyrimidine]
γ-secretase
  IC50: 250 nM

## CNc1nc(Nc2ccc(Cl)c(Cl)c2)ncc1NC(N)=O [3 (40), 2-(3,4-dichlorophenylamino)-4-methylamino-5-aminocarbonylamino-pyrimidine]
γ-secretase
  IC50: 350 nM

## CN(C)c1nc(Nc2ccc(Cl)c(Cl)c2)ncc1NC(=O)N1CCOCC1 [3 (54), 2-(3,4-dichlorophenylamino)-4-dimethylamino-5-(morpholinocarbonylamino)-pyrimidine]
γ-secretase
  IC50: 900 nM

## CCNc1nc(Nc2ccc(Cl)c(Cl)c2)ncc1NC(=O)N1CCOCC1 [3 (55), 2-(3,4-dichlorophenylamino)-4-ethylamino-5-(morpholinocarbonylamino)-pyrimidine]
γ-secretase
  IC50: 900 nM

## CNc1nc(Nc2cccc(Cl)c2)ncc1NC(=O)N1CCOCC1 [3 (59), 2-(3-chlorophenylamino)-4-methylamino-5-(morpholinocarbonylamino)-pyrimidine]
γ-secretase
  IC50: 150 nM

## CNc1nc(Nc2ccc(Cl)c(Cl)c2)ncc1NC(=O)C(F)(F)F [3 (66), 2-(3,4-dichlorophenylamino)-4-methylamino-5-trifluoracetylamino-pyrimidine]
γ-secretase
  IC50: 800 nM

## CN(C)CCCNc1nc(Nc2ccc(Cl)c(Cl)c2)ncc1[N+](=O)[O-] [4 (9), 2-(3,4-dichlorophenylamino)-4-[3-(dimethylamino)propylamino]-5-nitro-pyrimidine]
γ-secretase
  IC50: 1000 nM

## CNc1nc(N(C)c2ccc(Cl)c(Cl)c2)ncc1N1CCNC1=O [8 (2), 2-[N-(3,4-dichlorophenyl)-N-methylamino]-4-methylamino-5-(imidazolidin-2-on-1-yl)-pyrimidine]
γ-secretase
  IC50: 1000 nM

## CNc1nc(Nc2ccc(Cl)c(Cl)c2)ncc1NC(=O)N1CCN(C)CC1 [11 (2), 2-(3,4-dichlorophenylamino)-4-methylamino-5-(4-methylpiperazinocarbonylamino)-pyrimidine]
γ-secretase
  IC50: 100 nM

## CNc1nc(Nc2ccc(Cl)c(Cl)c2)ncc1NC(=O)N(CCOC)CCOC [11 (3), 2-(3,4-dichlorophenylamino)-4-methylamino-5-[[bis-(2-methoxyethyl)amino]-carbonylamino]-pyrimidine]
γ-secretase
  IC50: 4 nM

## CNc1nc(Nc2ccc(Cl)c(Cl)c2)ncc1NC(=O)N1CCCCCC1 [11 (4), 2-(3,4-dichlorophenylamino)-4-methylamino-5-(hexamethyleneiminocarbonylamino)-pyrimidine]
γ-secretase
  IC50: 60 nM

## CCN(CC)C(=O)Nc1cnc(Nc2ccc(Cl)c(Cl)c2)nc1NC [11 (5), 2-(3,4-dichlorophenylamino)-4-methylamino-5-(diethylaminocarbonylamino)-pyrimidine]
γ-secretase
  IC50: 100 nM

## CNc1nc(Nc2ccc(Cl)c(Cl)c2)ncc1NC(=O)N1CCNCC1 [11 (6), 2-(3,4-dichlorophenylamino)-4-methylamino-5-(piperazinocarbonylamino)-pyrimidine]
γ-secretase
  IC50: 700 nM

## CNc1nc(Nc2ccc(Cl)c(Cl)c2)ncc1NC(=O)N1CCN(C(C)=O)CC1 [11 (7), 2-(3,4-dichlorophenylamino)-4-methylamino-5-(4-acetylpiperazinocarbonylamino)-pyrimidine]
γ-secretase
  IC50: 1000 nM

## CNc1nc(Nc2ccc(Cl)c(Cl)c2)ncc1NC(=O)N(C)CCO [11 (8), 2-(3,4-dichlorophenylamino)-4-methylamino-5-[[N-methyl-(2-hydroxyethyl)-amino]carbonylamino]-pyrimidine]
γ-secretase
  IC50: 200 nM

## CNc1nc(Nc2ccc(Cl)c(Cl)c2)ncc1NC(=O)N(C)CCN(C)C [11 (10), 2-(3,4-dichlorophenylamino)-4-methylamino-5-[[N-methyl-(2-dimethylamino-ethyl)amino]carbonylamino]-pyrimidine]
γ-secretase
  IC50: 800 nM

## CNc1nc(Nc2ccc(Cl)c(Cl)c2)ncc1NC(=O)N(C)CCCN(C)C [11 (11), 2-(3,4-dichlorophenylamino)-4-methylamino-5-[[N-methyl-(3-dimethylaminopropyl)amino]carbonylamino]-pyrimidine]
γ-secretase
  IC50: 700 nM

## CNc1nc(Nc2ccc(Cl)c(Cl)c2)ncc1NC(=S)N1CCOCC1 [11 (12), 2-(3,4-dichlorophenylamino)-4-methylamino-5-(morpholinothiocarbonylamino)-pyrimidine]
γ-secretase
  IC50: 1000 nM

## CNc1nc(Nc2ccc(Cl)c(Cl)c2)ncc1N(C)S(C)(=O)=O [Example 8, 2-(3,4-dichlorophenylamino)-4-methylamino-5-(N-methyl-methylsulphonylamino)-pyrimidine]
γ-secretase
  IC50: 1100 nM

## CNc1nc(Nc2ccc([S+](C)[O-])cc2)ncc1[N+](=O)[O-] (stereo not drawn) [Example 10 a), 2-(4-methylsulphinylphenylamino)-4-methylamino-5-nitropyrimidine]
other
  melting point: 288 °C

## CNc1nc(Nc2ccc(S(C)(=O)=O)cc2)ncc1[N+](=O)[O-] [Example 10 b), 2-(4-methylsulphonylphenylamino)-4-methylamino-5-nitropyrimidine]
other
  melting point: 323 °C

## CNc1nc(Nc2ccc(Cl)c(Cl)c2)ncc1NC(=O)N1CCCC1 [Example 11, 2-(3,4-dichlorophenylamino)-4-methylamino-5-(pyrrolidinocarbonylamino)-pyrimidine]
γ-secretase
  IC50: 100 nM
